Experimental data published in patent publication US4518611A, “2-Furylbutyrolactone modulation of the immune system in mammals” (priority 1983, dated 1985).
“Also recorded” adds a separate entry of the source.

What was measured:
spleen lymphocytes [1] = assay: In vitro lymphocyte stimulation assay, C57BL/6 spleen lymphocytes; format: cell-based, mouse
Experimental: (§1) The purpose of this assay is to challenge lymphocytes in microcultures with one or more polyclonal mitogens at concentrations that will induce mitogenesis within 72 hours of stimulation.
(§2) In the mouse model, spleens are removed from different strains of mice and the spleen cells are teased free and suspended in RPMI-1640 tissue culture medium at a concentration of usually […]. These cells are dispensed at a concentration of 5.0×10^5 cells per microculture well in a 96 well flat bottom 96 well tissue culture plate. All testing of the compounds of this invention or mitogens are done in replicates of 10. The cells are then treated with PHA, Con-A, specific antigens, or buffer only. If in vitro testing is done, varying concentrations of the compounds of this invention or buffer only are added to the cells as well. After treatment with the mitogens and/or compounds of this invention, the cells are incubated for 72 hours. The response of these cells to mitogens and/or the compounds of this invention is assessed using ^14 C-thymidine labeling on the fourth day at a concentration of 0.01 μCi/well. The labeled cells are harvested using a lymphocyte harvestor and placed onto fibrous paper discs. A scintillation cocktail is added to vials containing the discs and the results are obtained using a LKB-liquid scintillation counter (Model 1216/Rackbeta II). The data is expressed as a ratio of the cpm of the mitogen stimulated group to the control (nonmitogen) treated group=lymphocyte stimulation index (LSI).
(§3) The lymphocyte stimulation assay may be performed directly on spleen cells obtained from various strains of mice not treated with the compounds of this invention or on lymphocytes obtained from human […]. […] Alternatively, the mice may be treated in vivo with the compounds of this invention by intraperitoneal multi-dose schedules, followed by sacrifice and harvesting spleen lymphocytes. These cells are then tested for their response to polyclonal mitogens or specific antigens used to immunize the mice. In this system however, no additional compound is added to the in vitro lymphocyte stimulation assay system.
An in vitro lymphocyte stimulation assay is performed directly on normal spleen lymphocytes removed from five normal C57BL/6 mice, using concentrations of Cpd. […] Following three days of incubation the assay is completed.
An in vitro lymphocyte stimulation assay was performed using spleen lymphocytes from normal C57BL/6 mice. The lymphocytes were treated with either 1, 5, 10, 50 or 100 μg/well of Cpd. 1 or buffer.
Cpd. 2 was tested using normal spleen lymphocytes from C57BL/6 mice. A lymphocyte stimulation assay was conducted using either 1, 5, 10, 50, or 100 μg/well […] or just buffer.
Spleen cells from C57BL/6 mice were treated, in vitro, with the crystallizing reagents, succinic acid and succinimide. Since these compounds are spontaneously released from the molecular complex in solution at a molar ratio of 2 moles of Cpds. 1, 2, or 3 per mole of the crystalline reagent, these reagents were treated in the lymphocyte stimulation assay at proper molar concentrations.
The compound of example 3, Cpd. 3, was used to treat C57BL/6 spleen lymphocytes in vitro. The lymphocytes were treated with either 1, 5, 10, 50, or 100 μg/well of Cpd. 3 or just buffer and then a lymphocyte stimulation assay was performed.

spleen lymphocytes [2] = assay: Lymphocyte stimulation assay after in vivo treatment, C57BL/6 mice; conditions: 4 days
Experimental: as §1, §2, §3
Two strains of mice, C57BL/6 and BDF1 are treated for seven days with i.p. administration of either 25, 50, 100, 200, or 400 mg/kg of Cpd. 1 or just buffer. This is followed on the eighth day by a lymphocyte stimulation assay.
A comparison is made of the lymphocyte response of C57BL/6 mice treated 4 days with i.p. administration of either 50, 100, 200, 400 or 800 mg/kg of Cpd. 1, 50, 100, 200, 400 or 800 mg/kg of ascorbic acid (AA), or just buffer. This is followed on the fifth day by a lymphocyte stimulation assay.
Two strains of mice, C57BL/6 and BALB/c, are treated 4 days with i.p. administration of either 50, 100, 200, or 400 mg/kg of Cpd. 1, or just buffer. This is followed on the fifth day by a lymphocyte stimulation assay.
C57BL/6 mice were treated with four daily i.p. doses of either 50, 100, 200, or 400 mg/kg of Cpd. 1 or just buffer. On the fifth day a lymphocyte stimulation assay was performed.
Mice of the C57BL/6 strain were tested with i.p. administration of either 100, 200, 400 or 600 mg/kg of Cpd. 1 or just buffer. This was followed by removal of spleens and treatment of lymphocytes therein with mitogens PHA and Con-A.
The compound of Example 2, Cpd. 2, was tested in vivo by using C57BL/6 mice and treating them with […] or just buffer for four consecutive days by the i.p. route. On the fifth day a lymphocyte stimulation assay was performed.

human lymphocytes = assay: In vitro lymphocyte stimulation assay, human lymphocytes; format: cell-based; parameters: key to Lymphocyte Stimulation Index, PHA / Lymphocyte Stimulation Index, Con-A: LSI = cpm of mitogen-stimulated group / cpm of control group
Experimental: as §1, §2, §3
Lymphocytes isolated from 5 human volunteers are treated in vitro with PHA and Con-A and either 0.1, 1, 10, 50, or 100 μg/well of Cpd. 1, 0.1, 1, 10, 50, or 100 μg/well of AA, or buffer.

L-1210 leukemia cells = assay: Treatment of L-1210 leukemia in BDF1 mice (T/C ratios); format: in vivo, mouse; conditions: 20 mg/kg, seven days
Text: Mice of the BDF1 strain are given in i.p. inoculation of 10^6 L-1210 leukemia cells on day 0. Twenty-four hours later, groups of 7 mice each are started on a nine day treatment regimen of various doses of the compounds of this invention. The experiment is continued according to the guidelines provided under the National Cancer Institute protocol for screening new anti-cancer agents and T/C ratios (median or mean survival time of treated groups over median or mean survival time of controls) are calculated. A T/C value ≥1.25 (or 125%) is considered significant anticancer activity.
(§4) Mice of the BDF1 strain, inoculated with L-1210 leukemia cells, are treated for seven days with either 25, 50, 100, 200 or 400 mg/kg of Cpd. 1 or just buffer. The National Cancer Institute protocol for screening new anti-cancer agents is followed and T/C ratios are calculated.
as §4, with “either 100” for “either 25, 50, 100, 200 or 400”, “Cpd. 1, 20 mg/kg of 5-flourouracil (5-FU), a known anti-cancer agent,” for “Cpd. 1”

Structure (SMILES): O=C(O)CCC(=O)O [Succinic Acid, succinic acid, reference compound]
- effect on PHA and Con-A mitogenesis (in words) (spleen lymphocytes [1]; in vitro): a decrease in PHA and Con-A mitogenesis with increased succinic acid dosage

Structure (SMILES): CN1C(=O)CCC1=O.Cc1ccc(C2(O)C(=O)OC3C(O)COC32O)o1.Cc1ccc(C2(O)C(=O)OC3C(O)COC32O)o1 (centres unmarked) [Cpd. 3, 2-furylbutyrolactone:N-methylsuccinimide]
- Lymphocyte Stimulation Index, Control (no mitogen) (spleen lymphocytes [1]; 1 μg/well): .60
- Lymphocyte Stimulation Index, Control (no mitogen) (spleen lymphocytes [1]; 5 μg/well): .64
- Lymphocyte Stimulation Index, Control (no mitogen) (spleen lymphocytes [1]; 10 μg/well): .47
- Lymphocyte Stimulation Index, PHA (spleen lymphocytes [1]; 10 μg/well): 24.0
- Lymphocyte Stimulation Index, Control (no mitogen) (spleen lymphocytes [1]; 50 μg/well): .27
- Lymphocyte Stimulation Index, Control (no mitogen) (spleen lymphocytes [1]; 100 μg/well): .25
- effect on Con-A response (in words) (spleen lymphocytes [1]; in vitro, Con-A): The 50 μg/well dose slightly stimulated the response to Con-A; also recorded: the 100 μg/well dose suppressed the response
- effect on PHA response (in words) (spleen lymphocytes [1]; in vitro, PHA): The 10 μg/well dose of Cpd. 3 significantly stimulated the response to PHA; also recorded: the 50 and 100 μg/well doses suppressed the response

Structure (SMILES): O=C1O[C@H]([C@@H](O)CO)C(O)=C1O [AA, ascorbic acid, reference compound]
- Lymphocyte Stimulation Index, Con-A (spleen lymphocytes [2]; 50 mg/kg i.p.): 25.5
- Lymphocyte Stimulation Index, Control (no mitogen) (spleen lymphocytes [2]; 50 mg/kg i.p.): .56
- Lymphocyte Stimulation Index, PHA (spleen lymphocytes [2]; 50 mg/kg i.p.): 17.1
- Lymphocyte Stimulation Index, Con-A (spleen lymphocytes [2]; 100 mg/kg i.p.): 19.8
- Lymphocyte Stimulation Index, Control (no mitogen) (spleen lymphocytes [2]; 100 mg/kg i.p.): 1.8
- Lymphocyte Stimulation Index, PHA (spleen lymphocytes [2]; 100 mg/kg i.p.): 17.1
- Lymphocyte Stimulation Index, Con-A (spleen lymphocytes [2]; 200 mg/kg i.p.): 21.1
- Lymphocyte Stimulation Index, Control (no mitogen) (spleen lymphocytes [2]; 200 mg/kg i.p.): 1.3
- Lymphocyte Stimulation Index, PHA (spleen lymphocytes [2]; 200 mg/kg i.p.): 10.0
- Lymphocyte Stimulation Index, Con-A (spleen lymphocytes [2]; 400 mg/kg i.p.): 17.8
- Lymphocyte Stimulation Index, Control (no mitogen) (spleen lymphocytes [2]; 400 mg/kg i.p.): 1.3
- Lymphocyte Stimulation Index, PHA (spleen lymphocytes [2]; 400 mg/kg i.p.): 14.3
- Lymphocyte Stimulation Index, Con-A (spleen lymphocytes [2]; 800 mg/kg i.p.): 23.9
- Lymphocyte Stimulation Index, Control (no mitogen) (spleen lymphocytes [2]; 800 mg/kg i.p.): .50
- Lymphocyte Stimulation Index, PHA (spleen lymphocytes [2]; 800 mg/kg i.p.): 12.1
- effect on Con-A response (in words) (spleen lymphocytes [2]; i.p., Con-A): a single stimulation of proliferation did occur at 50 mg/kg
- effect on PHA response (in words) (spleen lymphocytes [2]; i.p., PHA): No statistically significant measurable effect
- Lymphocyte Stimulation Index, Con-A (human lymphocytes; 0.1 μg/well): 24.37
- Lymphocyte Stimulation Index, PHA (human lymphocytes; 0.1 μg/well): 38.29
- Lymphocyte Stimulation Index, Con-A (human lymphocytes; 1.0 μg/well): 24.76
- Lymphocyte Stimulation Index, PHA (human lymphocytes; 1.0 μg/well): 34.69
- Lymphocyte Stimulation Index, Con-A (human lymphocytes; 10 μg/well): 27.35
- Lymphocyte Stimulation Index, PHA (human lymphocytes; 10 μg/well): 35.10
- Lymphocyte Stimulation Index, Con-A (human lymphocytes; 50 μg/well): 23.31
- Lymphocyte Stimulation Index, PHA (human lymphocytes; 50 μg/well): 35.93
- Lymphocyte Stimulation Index, Con-A (human lymphocytes; 100 μg/well): 25.18
- Lymphocyte Stimulation Index, PHA (human lymphocytes; 100 μg/well): 34.23
- effect on lymphocyte response (in words) (human lymphocytes; in vitro, PHA and Con-A): no significant proliferative or anti-proliferative effect

Structure (SMILES): O=c1[nH]cc(F)c(=O)[nH]1 [5-FU, 5-flourouracil, reference compound]
- Median Survival Time (L-1210 leukemia cells): 30
- T/C (L-1210 leukemia cells): 1.50

Structure (SMILES): O=C1CCC(=O)N1 [Succinimide, succinimide, reference compound]
- Lymphocyte Stimulation Index, Control (no mitogen) (spleen lymphocytes [1]; 13.92 μg/well): 1.4
- effect on PHA and Con-A mitogenesis (in words) (spleen lymphocytes [1]; in vitro): no significant suppressive or enhancing effect
